Results reported in the NIST ThermoML archive (doi:10.1016/j.jct.2012.02.028).

Assay: molar heat capacity at constant pressure
Settings: 101.33 kPa, Crystal, Vacuum adiabatic calorimetry

O=C([O-])[O-].[Zn+2] [zinc(II) carbonate]
Settings | molar heat capacity at constant pressure [J/K/mol]
4.397 K | 0.009408
4.399 K | 0.007545
4.757 K | 0.006774
4.774 K | 0.006545
5 K | 0.00773
5.101 K | 0.008038
5.155 K | 0.008164
5.346 K | 0.01084
5.423 K | 0.0117
5.582 K | 0.01132
5.688 K | 0.00813
5.816 K | 0.01409
5.946 K | 0.01317
6.06 K | 0.0142
6.285 K | 0.01382
6.398 K | 0.01585
6.723 K | 0.01601
6.824 K | 0.01961
7.156 K | 0.02326
7.254 K | 0.02331
7.601 K | 0.02683
7.692 K | 0.02785
8.054 K | 0.03096
8.134 K | 0.03204
8.509 K | 0.03516
8.576 K | 0.03774
8.961 K | 0.04103
9.021 K | 0.04305
9.412 K | 0.0479
9.468 K | 0.05013
9.862 K | 0.05547
9.915 K | 0.05829
10 K | 0.05961
10.54 K | 0.07294
10.59 K | 0.07477
11.45 K | 0.09358
11.5 K | 0.09604
12.37 K | 0.1193
12.41 K | 0.1215
13.29 K | 0.1517
13.33 K | 0.153
14.22 K | 0.1928
14.26 K | 0.193
15 K | 0.2346
15.15 K | 0.245
15.18 K | 0.2446
16.08 K | 0.2992
16.12 K | 0.2986
17.02 K | 0.3595
17.05 K | 0.3608
17.97 K | 0.4461
17.99 K | 0.4463
18.91 K | 0.535
18.93 K | 0.5407
19.85 K | 0.6305
19.88 K | 0.6346
20 K | 0.6547
21.27 K | 0.8212
21.29 K | 0.8243
23.14 K | 1.091
23.17 K | 1.096
25 K | 1.427
25.06 K | 1.439
26.95 K | 1.841
28.85 K | 2.31
30 K | 2.613
30.77 K | 2.836
32.69 K | 3.401
34.62 K | 4.038
35 K | 4.162
36.33 K | 4.607
36.56 K | 4.711
38.5 K | 5.446
38.58 K | 5.466
40 K | 6.03
40.52 K | 6.253
42.46 K | 7.047
44.41 K | 7.863
45 K | 8.122
46.36 K | 8.699
48.32 K | 9.572
50 K | 10.39
50.28 K | 10.5
52.24 K | 11.48
54.21 K | 12.47
55 K | 12.79
56.18 K | 13.4
58.15 K | 14.28
60 K | 15.28
60.13 K | 15.34
62.1 K | 16.36
64.08 K | 17.36
65 K | 17.8
66.07 K | 18.36
68.03 K | 19.3
69.94 K | 20.27
70 K | 20.32
72.36 K | 21.49
75 K | 22.79
75.35 K | 22.97
78.35 K | 24.46
79.92 K | 25.19
80 K | 25.24
83.21 K | 26.77
85 K | 27.63
86.23 K | 28.21
89.26 K | 29.61
90 K | 29.96
92.3 K | 31
95 K | 32.21
95.35 K | 32.37
98.41 K | 33.68
100 K | 34.37
101.48 K | 34.99
104.55 K | 36.23
105 K | 36.41
107.64 K | 37.47
110 K | 38.38
110.74 K | 38.65
113.84 K | 39.83
115 K | 40.26
116.95 K | 40.98
120 K | 42.07
120.07 K | 42.09
123.2 K | 43.18
126.34 K | 44.26
129.51 K | 45.31
130 K | 45.47
132.66 K | 46.33
135.83 K | 47.34
139 K | 48.32
140 K | 48.63
142.19 K | 49.32
145.38 K | 50.23
148.58 K | 51.14
150 K | 51.6
151.79 K | 52.15
155.01 K | 53.02
158.25 K | 53.93
160 K | 54.36
161.49 K | 54.75
164.72 K | 55.64
167.92 K | 56.45
170 K | 56.93
171.08 K | 57.17
174.21 K | 57.91
177.3 K | 58.72
180 K | 59.33
180.39 K | 59.37
183.43 K | 60.04
186.44 K | 60.81
189.44 K | 61.49
190 K | 61.57
192.42 K | 62.17
195.37 K | 62.73
198.3 K | 63.33
200 K | 63.68
201.2 K | 63.91
204.09 K | 64.5
206.97 K | 65.04
209.83 K | 65.68
210 K | 65.75
212.67 K | 66.32
215.51 K | 66.8
218.32 K | 67.43
220 K | 67.73
221.12 K | 67.91
223.9 K | 68.47
226.71 K | 68.96
229.46 K | 69.59
230 K | 69.62
232.21 K | 70.19
234.93 K | 70.69
237.65 K | 71.17
240 K | 71.45
240.37 K | 71.48
243.07 K | 71.89
245.76 K | 72.45
248.45 K | 72.82
250 K | 73.2
251.12 K | 73.38
253.79 K | 73.81
256.45 K | 74.15
259.09 K | 74.66
260 K | 74.88
261.74 K | 75.21
264.38 K | 75.75
267.01 K | 76.21
269.71 K | 76.37
270 K | 76.38
272.34 K | 76.67
273.15 K | 76.84
274.96 K | 77.02
277.57 K | 77.36
280 K | 77.83
280.18 K | 77.77
282.78 K | 78.17
285.37 K | 78.56
287.95 K | 78.94
290 K | 79.24
290.53 K | 79.31
293.11 K | 79.67
295.68 K | 80.03
298.15 K | 80.36
298.24 K | 80.38
300 K | 80.6
300.8 K | 80.74
303.36 K | 81.1
305.91 K | 81.42
308.46 K | 81.77
310 K | 81.91
311.15 K | 82.06
313.7 K | 82.4
316.26 K | 82.71
318.8 K | 83
320 K | 83.17
321.35 K | 83.28
